Patent publication US20090304692A1, “TRIAZINE COMPOUNDS AS PI3 KINASE AND MTOR INHIBITORS” (Wyeth, priority 2008, published 2009)
pIC50: −log10 of the molar value. Like-named read-outs stand apart in the source and are kept apart here.

Columns and labels:
Human mTOR (FLAG-TOR) = Human mTOR (FLAG-TOR) (Homo sapiens, UniProt P42345); experiment: mTOR kinase assay (DELFIA format, purified enzyme); format: biochemical; settings: read-out: IC50 mTOR
PI3K-α = PI3K-α (Homo sapiens, UniProt P42336); experiment: PI3K-alpha fluorescence polarization assay; settings: read-out: IC50 PI3Kα
PI3K-γ = PI3K-γ (Homo sapiens, UniProt P48736); experiment: PI3K-gamma fluorescence polarization assay
Chain of PI3K-γ (P48736 whole entry, species assumed): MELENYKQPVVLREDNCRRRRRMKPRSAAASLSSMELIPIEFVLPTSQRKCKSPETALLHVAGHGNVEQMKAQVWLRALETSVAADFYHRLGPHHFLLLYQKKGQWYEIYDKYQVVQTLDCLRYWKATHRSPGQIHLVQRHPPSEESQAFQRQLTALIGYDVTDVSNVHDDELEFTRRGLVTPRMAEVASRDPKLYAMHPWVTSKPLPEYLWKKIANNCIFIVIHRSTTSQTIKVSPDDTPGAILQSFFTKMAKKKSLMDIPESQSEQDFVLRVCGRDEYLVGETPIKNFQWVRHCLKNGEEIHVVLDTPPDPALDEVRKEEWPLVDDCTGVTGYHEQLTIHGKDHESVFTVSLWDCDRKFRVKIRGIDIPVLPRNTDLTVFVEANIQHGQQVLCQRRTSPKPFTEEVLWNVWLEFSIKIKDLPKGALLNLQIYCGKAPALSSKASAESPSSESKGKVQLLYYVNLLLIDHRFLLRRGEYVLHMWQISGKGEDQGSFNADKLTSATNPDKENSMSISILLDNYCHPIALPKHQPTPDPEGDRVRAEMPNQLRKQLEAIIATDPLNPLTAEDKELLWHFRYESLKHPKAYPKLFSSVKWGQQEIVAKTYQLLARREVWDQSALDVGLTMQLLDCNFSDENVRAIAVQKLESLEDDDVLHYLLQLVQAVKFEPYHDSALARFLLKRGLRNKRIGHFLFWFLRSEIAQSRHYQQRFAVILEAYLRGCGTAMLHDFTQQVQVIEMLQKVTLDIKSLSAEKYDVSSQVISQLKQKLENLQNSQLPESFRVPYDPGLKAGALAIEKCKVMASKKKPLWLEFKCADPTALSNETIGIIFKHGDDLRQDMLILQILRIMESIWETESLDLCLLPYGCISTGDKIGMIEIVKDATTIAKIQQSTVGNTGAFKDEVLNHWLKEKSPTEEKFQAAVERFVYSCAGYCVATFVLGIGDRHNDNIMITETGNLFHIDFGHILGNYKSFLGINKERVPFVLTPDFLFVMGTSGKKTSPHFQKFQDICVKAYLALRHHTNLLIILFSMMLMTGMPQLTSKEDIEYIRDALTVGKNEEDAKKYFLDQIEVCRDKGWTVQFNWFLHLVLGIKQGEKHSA

Chain of Human mTOR (FLAG-TOR) (P42345 1360-2549 limits assumed): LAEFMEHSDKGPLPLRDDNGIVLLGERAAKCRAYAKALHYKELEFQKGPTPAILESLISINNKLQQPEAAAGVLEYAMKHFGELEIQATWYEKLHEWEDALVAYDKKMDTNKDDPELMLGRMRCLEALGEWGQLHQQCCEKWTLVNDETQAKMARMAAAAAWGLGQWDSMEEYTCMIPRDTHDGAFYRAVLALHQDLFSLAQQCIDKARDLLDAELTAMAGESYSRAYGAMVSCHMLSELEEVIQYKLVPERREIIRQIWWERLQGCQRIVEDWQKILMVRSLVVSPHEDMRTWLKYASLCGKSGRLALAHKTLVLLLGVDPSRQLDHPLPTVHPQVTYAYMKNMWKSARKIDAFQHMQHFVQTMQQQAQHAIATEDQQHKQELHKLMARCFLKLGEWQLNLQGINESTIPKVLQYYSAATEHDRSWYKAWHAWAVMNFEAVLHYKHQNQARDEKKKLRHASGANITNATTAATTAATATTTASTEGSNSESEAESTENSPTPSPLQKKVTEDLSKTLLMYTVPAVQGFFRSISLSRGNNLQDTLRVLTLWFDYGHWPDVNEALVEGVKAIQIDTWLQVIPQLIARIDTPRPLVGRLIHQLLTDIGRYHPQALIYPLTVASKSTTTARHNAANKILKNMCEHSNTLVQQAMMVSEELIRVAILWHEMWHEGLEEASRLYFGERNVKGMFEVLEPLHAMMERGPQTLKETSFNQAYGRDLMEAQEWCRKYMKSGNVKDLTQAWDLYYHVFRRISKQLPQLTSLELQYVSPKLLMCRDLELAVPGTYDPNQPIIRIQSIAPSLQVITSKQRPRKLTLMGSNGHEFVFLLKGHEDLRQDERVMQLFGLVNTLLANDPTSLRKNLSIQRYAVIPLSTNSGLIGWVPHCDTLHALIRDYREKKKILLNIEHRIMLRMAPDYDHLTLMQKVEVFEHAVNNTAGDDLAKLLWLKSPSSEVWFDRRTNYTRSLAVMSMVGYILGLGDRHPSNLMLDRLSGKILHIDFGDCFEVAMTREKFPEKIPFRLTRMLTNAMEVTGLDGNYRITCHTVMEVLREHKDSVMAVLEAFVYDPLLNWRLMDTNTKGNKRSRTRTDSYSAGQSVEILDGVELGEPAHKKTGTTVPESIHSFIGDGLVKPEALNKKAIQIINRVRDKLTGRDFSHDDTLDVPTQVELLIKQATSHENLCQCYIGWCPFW
Chain of PI3K-α (P42336 whole entry, species assumed): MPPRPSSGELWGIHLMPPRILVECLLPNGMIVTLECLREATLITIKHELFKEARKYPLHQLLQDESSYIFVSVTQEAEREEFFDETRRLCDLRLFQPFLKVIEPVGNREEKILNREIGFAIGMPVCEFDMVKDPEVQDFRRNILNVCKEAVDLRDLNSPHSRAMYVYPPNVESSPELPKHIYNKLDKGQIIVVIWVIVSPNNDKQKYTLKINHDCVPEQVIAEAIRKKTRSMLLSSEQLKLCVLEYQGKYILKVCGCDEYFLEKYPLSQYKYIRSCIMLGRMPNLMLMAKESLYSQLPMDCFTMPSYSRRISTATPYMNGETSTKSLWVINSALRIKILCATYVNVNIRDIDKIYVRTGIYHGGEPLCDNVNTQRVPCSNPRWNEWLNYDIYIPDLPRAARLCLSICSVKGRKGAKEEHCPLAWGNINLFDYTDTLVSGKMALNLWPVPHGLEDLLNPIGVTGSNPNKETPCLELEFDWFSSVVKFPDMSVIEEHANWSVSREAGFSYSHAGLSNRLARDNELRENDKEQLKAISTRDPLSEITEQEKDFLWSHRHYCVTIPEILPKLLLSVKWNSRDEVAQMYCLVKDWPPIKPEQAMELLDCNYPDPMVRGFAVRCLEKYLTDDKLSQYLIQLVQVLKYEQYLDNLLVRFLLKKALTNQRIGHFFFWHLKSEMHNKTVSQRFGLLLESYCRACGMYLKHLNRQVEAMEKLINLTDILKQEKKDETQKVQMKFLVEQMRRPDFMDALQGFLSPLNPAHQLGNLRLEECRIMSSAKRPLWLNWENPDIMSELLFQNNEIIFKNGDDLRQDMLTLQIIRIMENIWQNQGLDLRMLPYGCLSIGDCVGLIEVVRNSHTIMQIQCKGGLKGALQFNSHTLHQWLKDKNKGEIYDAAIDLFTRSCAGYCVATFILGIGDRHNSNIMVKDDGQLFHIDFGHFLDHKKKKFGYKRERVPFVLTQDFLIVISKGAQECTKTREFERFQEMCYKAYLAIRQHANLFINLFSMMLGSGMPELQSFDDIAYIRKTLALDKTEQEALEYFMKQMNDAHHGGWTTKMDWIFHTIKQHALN
Chain of PI3K-α (P27986 whole entry partner, species assumed): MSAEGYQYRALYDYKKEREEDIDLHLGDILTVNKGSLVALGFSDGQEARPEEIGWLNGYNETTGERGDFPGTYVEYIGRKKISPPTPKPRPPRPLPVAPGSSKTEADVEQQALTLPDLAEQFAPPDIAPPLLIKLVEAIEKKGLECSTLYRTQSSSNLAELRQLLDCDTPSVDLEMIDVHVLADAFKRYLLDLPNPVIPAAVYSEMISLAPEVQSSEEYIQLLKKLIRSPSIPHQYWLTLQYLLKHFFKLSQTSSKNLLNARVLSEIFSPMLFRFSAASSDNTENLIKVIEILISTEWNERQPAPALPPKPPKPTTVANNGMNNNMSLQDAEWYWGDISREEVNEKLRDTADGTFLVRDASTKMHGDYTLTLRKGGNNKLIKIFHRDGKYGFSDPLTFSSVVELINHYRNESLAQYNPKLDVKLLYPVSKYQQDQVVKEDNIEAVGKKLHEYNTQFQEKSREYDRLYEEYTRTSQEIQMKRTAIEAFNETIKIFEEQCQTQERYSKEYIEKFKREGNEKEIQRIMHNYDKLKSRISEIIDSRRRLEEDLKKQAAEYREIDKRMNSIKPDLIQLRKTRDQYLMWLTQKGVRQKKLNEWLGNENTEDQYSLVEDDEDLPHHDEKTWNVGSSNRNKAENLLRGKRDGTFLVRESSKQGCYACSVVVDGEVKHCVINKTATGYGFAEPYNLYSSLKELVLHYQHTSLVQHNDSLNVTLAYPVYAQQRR

Compound	pIC50 (Human mTOR (FLAG-TOR))	pIC50 (PI3K-α)	pIC50 (PI3K-γ; read-out: IC50 PI3Kγ)	pIC50 (PI3K-γ)
COC(=O)c1ccc(NC(=O)Nc2ccc(-c3nc(N4CCCCC4)nc(N4CCOCC4)n3)cc2)cc1 [Example 591, methyl 4-({[4-(4-morpholin-4-yl-6-piperidin-1-yl-1,3,5-triazin-2-yl)phenyl]carbamoyl}amino)benzoate]	7.48	6.60	6.14	–
O=C(Nc1ccc(C(=O)O)cc1)Nc1ccc(-c2nc(N3CCCC3)nc(N3CCOCC3)n2)cc1 [Example 599, 4-({[4-(4-morpholin-4-yl-6-pyrrolidin-1-yl-1,3,5-triazin-2-yl)phenyl]carbamoyl}amino)benzoic acid]	7.89	7.19	6.72	–
O=C(Nc1ccncc1)Nc1ccc(-c2nc(N3CCCC3)nc(N3CCOCC3)n2)cc1 [Example 600, 1-[4-(4-morpholin-4-yl-6-pyrrolidin-1-yl-1,3,5-triazin-2-yl)phenyl]-3-pyridin-4-ylurea]	8.10	7.34	6.79	–
C[C@H]1COCCN1c1nc(-c2ccc(NC(=O)Nc3ccc(C(=O)O)cc3)cc2)nc(N2CCOCC2)n1 [Example 619, 4-{[(4-{4-[(3S)-3-methylmorpholin-4-yl]-6-morpholin-4-yl-1,3,5-triazin-2-yl}phenyl)carbamoyl]amino}benzoic acid]	9.00	7.48	6.86	–
C[C@@H]1COCCN1c1nc(-c2ccc(NC(=O)Nc3ccc(C(=O)O)cc3)cc2)nc(N2CCOC[C@@H]2C)n1 [Example 626, 4-{[(4-{4-[(3R)-3-methylmorpholin-4-yl]-6-[(3S)-3-methylmorpholin-4-yl]-1,3,5-triazin-2-yl}phenyl)carbamoyl]amino}benzoic acid]	9.00	7.23	6.68	–
O=C(Nc1ccncc1)Nc1ccc(-c2nc(N3CCOCC3)nc(N3CCN(C45CC6CC(CC(C6)C4)C5)CC3)n2)cc1 [Example 640, 1-{4-[4-morpholin-4-yl-6-(4-tricyclo[3.3.1.13,7]dec-1-ylpiperazin-1-yl)-1,3,5-triazin-2-yl]phenyl}-3-pyridin-4-ylurea]	5.55	6.46	6.10	–
CCCC1CCN(C(=O)c2ccc(NC(=O)Nc3ccc(-c4nc(N5CCOCC5)nc(N5CCN(C(=O)N(C)C)CC5)n4)cc3)cc2)CC1 [Example 645, N,N-dimethyl-4-(4-morpholin-4-yl-6-{4-[({4-[(4-propylpiperidin-1-yl)carbonyl]phenyl}carbamoyl)amino]phenyl}-1,3,5-triazin-2-yl)piperazine-1-carboxamide]	6.92	6.98	6.64	–
CCS(=O)(=O)N1CCN(c2nc(-c3ccc(NC(=O)Nc4ccc(C(=O)O)cc4)cc3)nc(N3CCOCC3)n2)CC1 [Example 652, 4-{[(4-{4-[4-(ethylsulfonyl)piperazin-1-yl]-6-morpholin-4-yl-1,3,5-triazin-2-yl}phenyl)carbamoyl]amino}benzoic acid]	8.40	7.44	7.07	–
CCS(=O)(=O)N1CCN(c2nc(-c3ccc(NC(=O)Nc4ccc(C(=O)NCCCN(C)C)cc4)cc3)nc(N3CCOCC3)n2)CC1 [Example 653, N-[3-(dimethylamino)propyl]-4-{[(4-{4-[4-(ethylsulfonyl)piperazin-1-yl]-6-morpholin-4-yl-1,3,5-triazin-2-yl}phenyl)carbamoyl]amino}benzamide]	8.15	8.39	7.47	–
CC(C)N1CCCN(c2nc(-c3ccc(NC(=O)Nc4ccc(C(=O)O)cc4)cc3)nc(N3CCOCC3)n2)CC1 [Example 655, 4-{[(4-{4-[4-(1-methylethyl)-1,4-diazepan-1-yl]-6-morpholin-4-yl-1,3,5-triazin-2-yl}phenyl)carbamoyl]amino}benzoic acid]	6.20	7.04	6.13	–
CC(C)N1CCCN(c2nc(-c3ccc(NC(=O)Nc4ccc(C(=O)N5CCN(C)CC5)cc4)cc3)nc(N3CCOCC3)n2)CC1 [Example 657, 1-(4-{4-[4-(1-methylethyl)-1,4-diazepan-1-yl]-6-morpholin-4-yl-1,3,5-triazin-2-yl}phenyl)-3-{4-[(4-methylpiperazin-1-yl)carbonyl]phenyl}urea]	6.41	7.94	6.89	–
CC(=O)NC1CCN(c2nc(-c3ccc(NC(=O)Nc4ccncc4)cc3)nc(N3CCOCC3)n2)CC1 [Example 658, N-[1-(4-morpholin-4-yl-6-{4-[(pyridin-4-ylcarbamoyl)amino]phenyl}-1,3,5-triazin-2-yl)piperidin-4-yl]acetamide]	7.70	7.38	6.58	–

The remaining lines, values ahead:

pIC50 (Human mTOR (FLAG-TOR))	pIC50 (PI3K-α)	pIC50 (PI3K-γ; read-out: IC50 PI3Kγ)	pIC50 (PI3K-γ)	Compound
6.44	6.02	5.90	–	COC(=O)c1cccc(NC(=O)Nc2ccc(-c3nc(-c4ccccc4)nc(N4CCOCC4)n3)cc2)c1 [Example 586, methyl 3-({[4-(4-morpholin-4-yl-6-phenyl-1,3,5-triazin-2-yl)phenyl]carbamoyl}amino)benzoate]
7.00	6.46	6.17	–	CCc1nc(-c2ccc(NC(=O)Nc3cccc(C(=O)N4CCN(c5ccccn5)CC4)c3)cc2)nc(N2CCOCC2)n1 [Example 587, 1-[4-(4-ethyl-6-morpholin-4-yl-1,3,5-triazin-2-yl)phenyl]-3-{3-[(4-pyridin-2-ylpiperazin-1-yl)carbonyl]phenyl}urea]
7.27	6.28	5.65	–	CCc1nc(-c2ccc(NC(=O)Nc3cccc(C(=O)N(C)CCN(C)C)c3)cc2)nc(N2CCOCC2)n1 [Example 588, N-[2-(dimethylamino)ethyl]-3-({[4-(4-ethyl-6-morpholin-4-yl-1,3,5-triazin-2-yl)phenyl]carbamoyl}amino)-N-methylbenzamide]
7.24	6.14	5.79	–	CCc1nc(-c2ccc(NC(=O)Nc3cccc(C(=O)N4CCN(C)CC4)c3)cc2)nc(N2CCOCC2)n1 [Example 589, 1-[4-(4-ethyl-6-morpholin-4-yl-1,3,5-triazin-2-yl)phenyl]-3-{3-[(4-methylpiperazin-1-yl)carbonyl]phenyl}urea]
7.31	6.46	6.39	–	O=C(Nc1ccc(-c2nc(-c3ccccc3)nc(N3CCOCC3)n2)cc1)Nc1cccc(C(=O)O)c1 [Example 590, 3-({[4-(4-morpholin-4-yl-6-phenyl-1,3,5-triazin-2-yl)phenyl]carbamoyl}amino)benzoic acid]
7.66	6.46	6.13	–	COC(=O)c1ccc(NC(=O)Nc2ccc(-c3nc(N4CCCC4)nc(N4CCOCC4)n3)cc2)cc1 [Example 594, methyl 4-({[4-(4-morpholin-4-yl-6-pyrrolidin-1-yl-1,3,5-triazin-2-yl)phenyl]carbamoyl}amino)benzoate]
7.57	6.64	6.33	–	CCCC1CCN(C(=O)c2ccc(NC(=O)Nc3ccc(-c4nc(N5CCOC[C@@H]5C)nc(N5CCOC[C@@H]5C)n4)cc3)cc2)CC1 [Example 636, 1-(4-{4,6-bis[(3S)-3-methylmorpholin-4-yl]-1,3,5-triazin-2-yl}phenyl)-3-{4-[(4-propylpiperidin-1-yl)carbonyl]phenyl}urea]
8.15	7.05	6.56	–	COC(=O)c1ccc(NC(=O)Nc2ccc(-c3nc(N4CCOCC4)nc(N4CCN(C(=O)N(C)C)CC4)n3)cc2)cc1 [Example 641, methyl 4-{[(4-{4-[4-(dimethylcarbamoyl)piperazin-1-yl]-6-morpholin-4-yl-1,3,5-triazin-2-yl}phenyl)carbamoyl]amino}benzoate]
9.00	7.16	6.59	–	CN(C)C(=O)N1CCN(c2nc(-c3ccc(NC(=O)Nc4ccncc4)cc3)nc(N3CCOCC3)n2)CC1 [Example 642, N,N-dimethyl-4-(4-morpholin-4-yl-6-{4-[(pyridin-4-ylcarbamoyl)amino]phenyl}-1,3,5-triazin-2-yl)piperazine-1-carboxamide]
7.66	7.63	6.99	–	CCS(=O)(=O)N1CCN(c2nc(-c3ccc(NC(=O)Nc4ccncc4)cc3)nc(N3CCOCC3)n2)CC1 [Example 650, 1-(4-{4-[4-(ethylsulfonyl)piperazin-1-yl]-6-morpholin-4-yl-1,3,5-triazin-2-yl}phenyl)-3-pyridin-4-ylurea]
7.85	7.15	6.61	–	CCS(=O)(=O)N1CCN(c2nc(-c3ccc(NC(=O)Nc4ccc(C(=O)OC)cc4)cc3)nc(N3CCOCC3)n2)CC1 [Example 651, methyl 4-{[(4-{4-[4-(ethylsulfonyl)piperazin-1-yl]-6-morpholin-4-yl-1,3,5-triazin-2-yl}phenyl)carbamoyl]amino}benzoate]
8.10	8.22	7.15	–	CCS(=O)(=O)N1CCN(c2nc(-c3ccc(NC(=O)Nc4ccc(C(=O)NCCN(C)C)cc4)cc3)nc(N3CCOCC3)n2)CC1 [Example 654, N-[2-(dimethylamino)ethyl]-4-{[(4-{4-[4-(ethylsulfonyl)piperazin-1-yl]-6-morpholin-4-yl-1,3,5-triazin-2-yl}phenyl)carbamoyl]amino}benzamide]
7.72	7.14	6.19	–	COC(=O)c1ccc(NC(=O)Nc2ccc(-c3nc(N4CCOCC4)nc(N4CCC(NC(C)=O)CC4)n3)cc2)cc1 [Example 656, methyl 4-{[(4-{4-[4-(acetylamino)piperidin-1-yl]-6-morpholin-4-yl-1,3,5-triazin-2-yl}phenyl)carbamoyl]amino}benzoate]
6.14	5.44	–	≤ 5.00	CC(=O)NC1CCN(c2nc(-c3ccc(NC(=O)Nc4ccc(C(=O)O)cc4)cc3)nc(N3CCOCC3)n2)CC1 [Example 659, 4-{[(4-{4-[4-(acetylamino)piperidin-1-yl]-6-morpholin-4-yl-1,3,5-triazin-2-yl}phenyl)carbamoyl]amino}benzoic acid]
